Experimental data from patent US9346794B1, “Substituted 4-pyridones and their use as inhibitors of neutrophil elastase activity” (Boehringer Ingelheim International GmbH, priority 2012, dated 2016).

Target: Human neutrophil elastase (Homo sapiens (Human), UniProt P08246)
Test: Human Neutrophil Elastase Assay
Format: biochemical
Settings: substrate MeOSuc-Ala-Ala-Pro-Val-AMC 250 μM, fluorescence, pH 7.5
Protocol: Human Neutrophil Elastase Assay
All other materials were of the highest grade commercially available.
The following buffers were used: Compound buffer: 100 mM Tris, 500 mM NaCl, adjusted to pH 7.5; Assay buffer: 100 mM Tris, 500 mM NaCl, adjusted to pH 7.5, containing 0.01% BSA.
Assay conditions: Test compounds were prediluted in DMSO and subsequently in compound buffer (5% DMSO final). […] After inactivation of the enzyme, fluorescence intensities were measured at 380 nm excitation and 460 nm emission wavelengths.
Each plate contains wells with a high value control (DMSO+enzyme+substrate) and wells with a low value control (DMSO+inactivated enzyme+substrate). IC50 values were estimated using a sigmoidal concentration response curve with variable slope. Means of low values were taken as 0%, means of high values as 100%. IC50 values of selected compound in the Neutrophil Elastase assay: […]

Sequence of Human neutrophil elastase (P08246 30-247): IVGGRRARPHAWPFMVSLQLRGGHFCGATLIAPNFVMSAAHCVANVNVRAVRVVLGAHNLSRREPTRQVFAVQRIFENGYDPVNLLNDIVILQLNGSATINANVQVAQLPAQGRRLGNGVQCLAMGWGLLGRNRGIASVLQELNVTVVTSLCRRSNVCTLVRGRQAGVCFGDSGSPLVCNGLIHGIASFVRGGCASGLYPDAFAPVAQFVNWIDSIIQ

Row | Structure (SMILES) | IC50
1 | Cc1c(-c2ccnc(C(F)(F)F)c2)c(=O)c(C(=O)NCc2ccc(S(C)(=O)=NC#N)cc2)cn1-c1cccnc1 (single isomer, unassigned) [Example 45] | 14.4 nM
2 | CCn1cc(C(=O)NCc2ccc(S(=O)(CC)=NC#N)cc2)c(=O)c(-c2cccc(C(F)F)c2)c1C (centres unmarked) [Example 29] | 1.5 nM
3 | CCS(=O)(=NC#N)c1ccc(CNC(=O)c2cn(C3CC3)c(C)c(-c3cccc(C(F)(F)F)c3)c2=O)cc1 (single isomer, unassigned) [Example 21A] | 5.2 nM
4 | Cc1c(-c2cccc(C(F)(F)F)c2)c(=O)c(C(=O)NCc2ccc(S(C)(=O)=NC#N)cc2)cn1-c1ccccc1 (single isomer, unassigned) [Example 24] | 5.5 nM
5 | Cc1c(-c2ccnc(C(F)(F)F)c2)c(=O)c(C(=O)NCc2ccc(S(C)(=O)=NC#N)cc2)cn1-c1ccccn1 (single isomer, unassigned) [Example 44] | 14.9 nM
6 | Cc1c(-c2ccnc(C(F)(F)F)c2)c(=O)c(C(=O)NCc2ccc(S(C)(=O)=NC#N)cc2)cn1-c1ccncc1 (single isomer, unassigned) [Example 46] | 11.7 nM
7 | CCn1cc(C(=O)NCc2ccc(S(=O)(CC)=NC#N)cc2)c(=O)c(-c2cccc(C(F)(F)F)c2)c1C (single isomer, unassigned) [Example 10A] | 2.7 nM
8 | CCS(=O)(=NC#N)c1ccc(CNC(=O)c2cn(C(C)C)c(C)c(-c3cccc(C(F)F)c3)c2=O)cc1 (centres unmarked) [Example 31] | < 1 nM
9 | Cc1c(-c2cccc(C(F)F)c2)c(=O)c(C(=O)NCc2ccc(S(C)(=O)=NC#N)cc2)cn1-c1ccncc1 (single isomer, unassigned) [Example 40] | 4 nM
10 | CCS(=O)(=NC#N)c1ccc(CNC(=O)c2cn(-c3ccnn3C)c(C)c(-c3cccc(C(F)(F)F)c3)c2=O)cc1 (centres unmarked) [Example 18] | 1.5 nM
11 | CCn1cc(C(=O)NCc2ccc(S(C)(=O)=NC#N)cc2)c(=O)c(-c2cccc(C(F)F)c2)c1C (centres unmarked) [Example 5, 5-(3-Difluoromethyl-phenyl)-1-ethyl-6-methyl-4-oxo-1,4-dihydro-pyridine-3-carboxylic acid 4-(N-cyano-S-methylsulfonimidoyl)-benzylamide] | 2.5 nM
12 | Cc1c(-c2cccc(C(F)F)c2)c(=O)c(C(=O)NCc2ccc(S(C)(=O)=NC#N)cc2)cn1-c1ccccc1 (single isomer, unassigned) [Example 38] | 3.7 nM
13 | Cc1c(-c2cccc(C(F)(F)F)c2)c(=O)c(C(=O)NCc2ccc(S(C)(=O)=NC#N)cc2)cn1C1CCOCC1 (centres unmarked) [Example 53] | 2.3 nM
14 | CCn1cc(C(=O)NCc2ccc(S(=O)(CC)=NC#N)cc2)c(=O)c(-c2cccc(C(F)(F)F)c2)c1C (single isomer, unassigned) [Example 10B] | 1.2 nM
15 | CN=S(=O)(c1ccc(CNC(=O)c2cn(C(C)C)c(C)c(-c3cccc(C(F)F)c3)c2=O)cc1)N(C)C (centres unmarked) [Example 61, 5-(3-Difluoromethyl-phenyl)-1-isopropyl-6-methyl-4-oxo-1,4-dihydro-pyridine-3-carboxylic acid 4-(N,N,N′-trimethylsulfamimidoyl)-benzylamide] | 10.2 nM
16 | Cc1c(-c2cccc(C(F)F)c2)c(=O)c(C(=O)NCc2ccc(S(C)(=O)=NC#N)cc2)cn1-c1cccnc1 (single isomer, unassigned) [Example 39] | 3.7 nM
17 | Cc1c(-c2cccc(C(F)F)c2)c(=O)c(C(=O)NCc2ccc(S(C)(=O)=NS(C)(=O)=O)cc2)cn1C(C)C (centres unmarked) [Example 35] | 8 nM
18 | Cc1c(-c2cccc(C(F)(F)F)c2)c(=O)c(C(=O)NCc2ccc(S(C)(=O)=NC#N)cc2)cn1C1CCCOC1 (centres unmarked) [Example 55] | 1.8 nM
19 | CCn1cc(C(=O)NCc2ccc(S(=O)(CC)=NC#N)cc2)c(=O)c(-c2cccc(C(F)F)c2)c1C (single isomer, unassigned) [Example 29B] | < 1 nM
20 | Cc1c(-c2cccc(C(F)(F)F)c2)c(=O)c(C(=O)NCc2ccc(S(C)(=O)=NC#N)cc2)cn1Cc1ccc(C#N)cc1 (centres unmarked) [Example 9, 1-(4-Cyano-benzyl)-6-methyl-4-oxo-5-(3-trifluoromethyl-phenyl)-1,4-dihydro-pyridine-3-carboxylic acid 4-(N-cyano-S-methylsulfonimidoyl)-benzylamide] | < 1 nM

Continued, values first:

Row | IC50 | Structure (SMILES)
21 | 3.1 nM | Cc1c(-c2cccc(C(F)F)c2)c(=O)c(C(=O)NCc2ccc(S(C)(=O)=NC#N)cc2)cn1C(C)C (single isomer, unassigned) [Example 1A, 5-(3-Difluoromethyl-phenyl)-1-isopropyl-6-methyl-4-oxo-1,4-dihydro-pyridine-3-carboxylic acid 4-(N-cyano-S-methylsulfonimidoyl)-benzylamide]
22 | 1.6 nM | CCn1cc(C(=O)NCc2ccc(S(C)(=O)=NC#N)cc2)c(=O)c(-c2cccc(C(F)(F)F)c2)c1C (single isomer, unassigned) [Example 4B, 1-Ethyl-6-methyl-4-oxo-5-(3-trifluoromethyl-phenyl)-1,4-dihydro-pyridine-3-carboxylic acid 4-(N-cyano-S-methylsulfonimidoyl)-benzylamide]
23 | 3.4 nM | Cc1cc(CNC(=O)c2cn(C(C)C)c(C)c(-c3cccc(C(F)(F)F)c3)c2=O)ccc1S(C)(=O)=NC#N (centres unmarked) [Example 66, 1-Isopropyl-6-methyl-4-oxo-5-(3-trifluoromethyl-phenyl)-1,4-dihydro-pyridine-3-carboxylic acid 3-methyl-4-(N-cyano-S-methylsulfonimidoyl)-benzylamide]
24 | 1.7 nM | Cc1ccncc1-n1cc(C(=O)NCc2ccc(S(C)(=O)=NC#N)cc2)c(=O)c(-c2cccc(C(F)(F)F)c2)c1C (centres unmarked) [Example 57]
25 | 2.4 nM | Cc1cc(S(C)(=O)=NC#N)ccc1CNC(=O)c1cn(C(C)C)c(C)c(-c2cccc(C(F)F)c2)c1=O (centres unmarked) [Example 34]
26 | 1.4 nM | Cc1c(-c2cccc(C(F)(F)F)c2)c(=O)c(C(=O)NCc2ccc(S(=O)(=NC#N)C3CC3)cc2)cn1C(C)C (centres unmarked) [Example 63, 1-Isopropyl-6-methyl-4-oxo-5-(3-trifluoromethyl-phenyl)-1,4-dihydro-pyridine-3-carboxylic acid 4-(S-cyclopropyl-N-cyanosulfonimidoyl)-benzylamide]
27 | 22 nM | CN=S(=O)(c1ccc(CNC(=O)c2cn(C(C)C)c(C)c(-c3cccc(C(F)(F)F)c3)c2=O)cc1)N(C)C (centres unmarked) [Example 60, 5-(3-Trifluoromethyl-phenyl)-1-isopropyl-6-methyl-4-oxo-1,4-dihydro-pyridine-3-carboxylic acid 4-(N,N,N′-trimethylsulfamimidoyl)-benzylamide]
28 | 1.8 nM | Cc1c(-c2ccc(F)c(C(F)(F)F)c2)c(=O)c(C(=O)NCc2ccc(S(C)(=O)=NC#N)cc2)cn1C(C)C (single isomer, unassigned) [Example 41]
29 | 1.5 nM | Cc1c(-c2cccc(C(F)(F)F)c2)c(=O)c(C(=O)NCc2ccc(S(C)(=O)=NC#N)cc2F)cn1C(C)C (centres unmarked) [Example 14]
30 | < 1 nM | CCn1cc(C(=O)NCc2ccc(S(=O)(=NC#N)C(C)C)cc2)c(=O)c(-c2cccc(C(F)(F)F)c2)c1C (centres unmarked) [Example 11]
31 | 2.7 nM | Cc1c(-c2cccc(C(F)(F)F)c2)c(=O)c(C(=O)NCc2ccc(S(C)(=O)=NC#N)c[n+]2[O-])cn1C(C)C (centres unmarked) [Example 62, 5-(3-Trifluoromethyl-phenyl)-1-isopropyl-6-methyl-4-oxo-1,4-dihydro-pyridine-3-carboxylic acid (5-(N-cyano-S-methylsulfonimidoyl)-1-oxy-pyridin-2-yl)-methylamide]
32 | 5.6 nM | Cc1c(-c2cccc(C(F)(F)F)c2)c(=O)c(C(=O)NCc2ccc(S(C)(=O)=NC#N)cc2)cn1C1CC1 (single isomer, unassigned) [Example 20]
33 | 2.3 nM | Cc1c(-c2cccc(C(F)(F)F)c2)c(=O)c(C(=O)NCc2ccc(S(C)(=O)=NC#N)cc2)cn1C1CCOC1 (centres unmarked) [Example 54]
34 | < 1 nM | CCS(=O)(=NC#N)c1ccc(CNC(=O)c2cn(C(C)C)c(C)c(-c3cccc(C(F)(F)F)c3)c2=O)cc1 (centres unmarked) [Example 12]
35 | 4.7 nM | Cc1c(-c2ccc(F)c(C(F)F)c2)c(=O)c(C(=O)NCc2ccc(S(C)(=O)=NC#N)cc2)cn1C(C)C (single isomer, unassigned) [Example 42]
36 | 3.1 nM | Cc1c(-c2cccc(C(F)(F)F)c2)c(=O)c(C(=O)NCc2ccc(S(C)(=O)=NC#N)cc2)cn1-c1nccs1 (centres unmarked) [Example 56]
37 | 1.2 nM | Cc1c(-c2cccc(C(F)(F)F)c2)c(=O)c(C(=O)NCc2ccc(S(C)(=O)=NC#N)cc2)cn1-c1ccnn1C (single isomer, unassigned) [Example 47]
38 | 3 nM | CCn1cc(C(=O)NCc2ccc(S(C)(=O)=NC#N)cc2)c(=O)c(-c2cccc(C(F)(F)F)c2)c1C (racemic) [Example 4, 1-Ethyl-6-methyl-4-oxo-5-(3-trifluoromethyl-phenyl)-1,4-dihydro-pyridine-3-carboxylic acid 4-(N-cyano-S-methylsulfonimidoyl)-benzylamide]
39 | 4.5 nM | Cc1c(-c2cccc(C(F)(F)F)c2)c(=O)c(C(=O)NCc2ccc(S(=O)(=NC#N)C(C)C)cc2)cn1C1CC1 (single isomer, unassigned) [Example 22A]
40 | 1.9 nM | Cc1c(-c2cccc(C(F)(F)F)c2)c(=O)c(C(=O)NCc2ccc(S(C)(=O)=NC#N)cn2)cn1C(C)C (centres unmarked) [Example 16, 5-(3-trifluoromethyl-phenyl)-1-isopropyl-6-methyl-4-oxo-1,4-dihydro-pyridine-3-carboxylic acid (5-(N-cyano-S-methylsulfonimidoyl)pyridin-2-yl)methylamide]
41 | 3.3 nM | Cc1c(-c2cccc(C(F)(F)F)c2)c(=O)c(C(=O)NCc2ccc(S(C)(=O)=NC#N)cc2)cn1-c1cncnc1 (single isomer, unassigned) [Example 28]
